Where two headings read alike, the source gives them in different places.
Tests used:
KAT6A = KAT6A (Homo sapiens (Human), UniProt Q92794); assay: KAT assay (SAMDI mass spectrometry), KAT6A; format: biochemical;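 further: Baculovirus-expressed KAT6A acetylating histone H3 (1-21) peptide (2 µM), 30-60 min at room temperature, % product conversion fitted to Morrison equation for tight-binding competitive inhibitors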
KAT6B = KAT6B (Homo sapiens (Human), UniProt Q8WYB5); assay: KAT assay (SAMDI mass spectrometry), KAT6B; format: biochemical
KAT5 = KAT5 (Homo sapiens (Human), UniProt Q92993); assay: KAT assay (SAMDI mass spectrometry), KAT5; format: biochemical;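 further: Baculovirus-expressed KAT5 acetylating a histone H4 peptide at room temperature, read as percent conversion to product, Ki from a Morrison tight-binding competitive fit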
Chain of KAT5 (Q92993 whole entry): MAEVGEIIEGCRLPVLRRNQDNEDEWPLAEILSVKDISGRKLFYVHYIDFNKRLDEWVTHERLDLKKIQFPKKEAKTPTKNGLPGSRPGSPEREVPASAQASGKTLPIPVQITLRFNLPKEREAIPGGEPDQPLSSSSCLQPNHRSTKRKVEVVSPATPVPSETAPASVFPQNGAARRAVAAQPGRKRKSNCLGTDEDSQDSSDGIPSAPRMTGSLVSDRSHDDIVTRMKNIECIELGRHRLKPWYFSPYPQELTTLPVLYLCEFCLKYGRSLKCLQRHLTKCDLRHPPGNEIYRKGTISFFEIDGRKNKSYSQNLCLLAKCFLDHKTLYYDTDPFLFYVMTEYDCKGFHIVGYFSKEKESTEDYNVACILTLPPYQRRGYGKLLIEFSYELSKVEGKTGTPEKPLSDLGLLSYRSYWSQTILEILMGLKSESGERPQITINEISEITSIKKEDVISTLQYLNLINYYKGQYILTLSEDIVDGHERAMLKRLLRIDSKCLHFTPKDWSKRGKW

KAT7 = KAT7 (Homo sapiens (Human), UniProt O95251); assay: KAT assay (SAMDI mass spectrometry), KAT7; format: biochemical;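 further: Baculovirus-expressed enzyme acetylating a histone peptide at room temperature, percent conversion from product and substrate peak areas, Ki from a Morrison tight-binding competitive fit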
Chain of KAT7 (O95251 whole entry): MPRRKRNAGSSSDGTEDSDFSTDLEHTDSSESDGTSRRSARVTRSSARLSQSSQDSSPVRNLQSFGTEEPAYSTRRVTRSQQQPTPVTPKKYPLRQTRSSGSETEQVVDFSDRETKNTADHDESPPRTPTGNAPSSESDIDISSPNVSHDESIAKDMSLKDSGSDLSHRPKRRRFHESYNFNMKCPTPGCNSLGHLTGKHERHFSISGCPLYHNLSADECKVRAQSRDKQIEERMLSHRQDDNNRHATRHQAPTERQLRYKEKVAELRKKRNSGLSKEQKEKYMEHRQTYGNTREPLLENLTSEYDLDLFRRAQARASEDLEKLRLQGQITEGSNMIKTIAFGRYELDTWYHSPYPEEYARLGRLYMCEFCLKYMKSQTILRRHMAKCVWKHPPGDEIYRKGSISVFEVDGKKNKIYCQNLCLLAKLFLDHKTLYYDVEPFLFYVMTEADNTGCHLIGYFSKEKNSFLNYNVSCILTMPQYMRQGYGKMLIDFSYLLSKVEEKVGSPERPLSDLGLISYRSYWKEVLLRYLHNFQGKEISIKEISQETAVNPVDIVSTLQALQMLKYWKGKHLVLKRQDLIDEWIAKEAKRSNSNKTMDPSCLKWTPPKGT

KAT8 = KAT8 (Homo sapiens (Human), UniProt Q9H7Z6); assay: KAT assay (SAMDI mass spectrometry), KAT8; format: biochemical
Chain of KAT8 (Q9H7Z6 whole entry): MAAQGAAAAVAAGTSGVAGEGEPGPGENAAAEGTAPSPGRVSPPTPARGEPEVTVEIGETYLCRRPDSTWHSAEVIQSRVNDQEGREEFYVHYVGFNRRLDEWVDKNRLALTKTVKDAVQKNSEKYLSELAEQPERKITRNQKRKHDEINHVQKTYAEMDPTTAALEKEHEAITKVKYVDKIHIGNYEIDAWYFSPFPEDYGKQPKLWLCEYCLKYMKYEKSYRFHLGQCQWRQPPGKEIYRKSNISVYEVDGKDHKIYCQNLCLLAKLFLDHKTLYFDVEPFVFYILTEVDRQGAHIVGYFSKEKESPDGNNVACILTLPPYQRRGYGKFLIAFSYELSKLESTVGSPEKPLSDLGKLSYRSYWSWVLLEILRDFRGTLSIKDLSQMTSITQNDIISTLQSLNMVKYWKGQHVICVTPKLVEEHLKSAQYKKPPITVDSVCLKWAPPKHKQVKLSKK

[1] = tested on: histone H3 Lysine 14 acetylation in U2OS cells; assay: Histone H3 Lysine 14 Acetylation Biomarker Assay; format: cell-based; conditions: Homo sapiens, serum free medium, 24 hours incubation
Protocol: Compounds were tested for their ability to inhibit acetylation of the histone H3 Lysine 14 marker in the following assay:
The cell line U2OS was seeded at a density of 3,000 cells per well in 384-well optical quality tissue culture plates in RPMI medium supplemented with 10% foetal bovine serum and 10 mM Hepes. The cells were allowed to adhere for 24 hours under standard culture conditions (37 degree Celsius, 5% CO2). At the end of this period the cells were washed with serum free medium. […] After incubation for 24 hours, the cells were fixed with 4% formaldehyde in PBS for 15 minutes at room temperature, washed with phosphate buffer saline and blocked with blocking buffer containing 0.2% TritonX100 and 2% BSA. Anti-H3K14ac specific antibody (Cell Signalling Technologies) in blocking buffer was added and incubated overnight at 4 degree Celsius. After washing, a secondary antibody labelled with AlexaFluor 488 dye (ThermoFisher) and Hoechst 33342 (1 μg/mL, Life Technologies) were added for 2 hours incubation at room temperature. Plates were washed and read on a PerkinElmer Opera HCS high content imaging platform. Using a Columbus image analysis pipeline, individual nuclei were located by Hoechst 33342 stain and the acetylation level was calculated from the AlexaFluor 488-related intensity in the same area.

[2] = tested on: histone H2A.Z Lysine 7 acetylation in U2OS cells; assay: H2A.Z Lysine 7 Acetylation Biomarker Assay; format: cell-based; conditions: Homo sapiens, serum free medium, 24 hours incubation
Protocol: Compounds were tested for their ability to inhibit the histone H2A.Z Lysine 7 acetylation marker in the following assay: The cell line U2OS was seeded at a density of 3,000 cells per well in 384-well optical quality tissue culture plates in RPMI medium supplemented with 10% foetal bovine serum and 10 mM Hepes. The cells were allowed to adhere for 24 hours under standard culture conditions (37 degree Celsius, 5% CO2). At the end of this period the cells were washed with serum free medium. […] 2018, at 30 μM concentration. After incubation for 24 hours, the cells were fixed with 4% formaldehyde in PBS for 15 minutes at room temperature, washed with phosphate buffer saline and blocked with blocking buffer containing 0.2% TritonX100 and 2% BSA. Anti-H2A.ZK7ac specific antibody (Abcam) in blocking buffer was added and incubated overnight at 4 degree Celsius. After washing, a secondary antibody labelled with AlexaFluor 488 dye (ThermoFisher) and Hoechst 33342 (1 μg/mL, Life Technologies) were added for 2 hours incubation at room temperature. Plates were washed and read on a PerkinElmer Opera HCS high content imaging platform. Using a Columbus image analysis pipeline, individual nuclei were located by Hoechst 33342 stain and the acetylation level was calculated from the AlexaFluor 488-related intensity in the same area.

TIP60-KAT5 = TIP60-KAT5 (Homo sapiens (Human), UniProt Q92993); assay: biochemical
Chain of TIP60-KAT5 (Q92993 other isoform, or with tags, fused parts or gaps): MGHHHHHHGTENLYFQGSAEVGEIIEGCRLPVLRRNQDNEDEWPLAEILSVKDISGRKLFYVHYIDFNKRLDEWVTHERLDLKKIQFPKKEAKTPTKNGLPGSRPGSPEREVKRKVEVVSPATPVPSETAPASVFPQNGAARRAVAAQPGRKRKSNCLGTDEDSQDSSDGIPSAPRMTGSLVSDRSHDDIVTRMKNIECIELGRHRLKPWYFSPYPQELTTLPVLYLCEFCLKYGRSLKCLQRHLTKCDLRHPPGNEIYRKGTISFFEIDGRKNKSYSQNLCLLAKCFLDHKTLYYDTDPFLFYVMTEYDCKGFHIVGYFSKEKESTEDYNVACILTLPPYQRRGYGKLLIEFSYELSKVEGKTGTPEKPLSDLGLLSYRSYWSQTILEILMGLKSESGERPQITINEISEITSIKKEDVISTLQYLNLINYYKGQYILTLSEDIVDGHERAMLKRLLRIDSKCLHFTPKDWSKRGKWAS

MOZ-KAT6A = MOZ-KAT6A (Homo sapiens (Human), UniProt Q92794); assay: biochemical
HBO1-KAT7 = HBO1-KAT7 (Homo sapiens (Human), UniProt O95251); assay: biochemical
Chain of HBO1-KAT7 (O95251 other isoform, or with tags, fused parts or gaps): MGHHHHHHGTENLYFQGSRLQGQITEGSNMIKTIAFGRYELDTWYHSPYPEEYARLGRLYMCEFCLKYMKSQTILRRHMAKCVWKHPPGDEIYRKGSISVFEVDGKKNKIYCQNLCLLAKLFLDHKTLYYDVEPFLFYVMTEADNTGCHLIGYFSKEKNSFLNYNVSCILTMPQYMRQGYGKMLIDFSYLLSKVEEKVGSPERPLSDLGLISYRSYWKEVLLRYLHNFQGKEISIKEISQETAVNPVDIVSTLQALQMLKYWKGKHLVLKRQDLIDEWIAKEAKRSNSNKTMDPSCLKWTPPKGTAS

[3] = read-out: KAT6a Ki at 1 μM AcCoA, 1 μM AcCoA
[4] = read-out: KAT6a Ki at 10 μM AcCoA, 10 μM AcCoA
[5] = 25 μM AcCoA, read-out: KAT6b Ki at 25 μM AcCoA
[6] = read-out: KAT5 Ki at 1 μM AcCoA
[7] = read-out: KAT7 Ki at 1 μM AcCoA
[8] = read-out: KAT8 Ki at 1 μM AcCoA

Chain of KAT6A (Q92794 whole entry): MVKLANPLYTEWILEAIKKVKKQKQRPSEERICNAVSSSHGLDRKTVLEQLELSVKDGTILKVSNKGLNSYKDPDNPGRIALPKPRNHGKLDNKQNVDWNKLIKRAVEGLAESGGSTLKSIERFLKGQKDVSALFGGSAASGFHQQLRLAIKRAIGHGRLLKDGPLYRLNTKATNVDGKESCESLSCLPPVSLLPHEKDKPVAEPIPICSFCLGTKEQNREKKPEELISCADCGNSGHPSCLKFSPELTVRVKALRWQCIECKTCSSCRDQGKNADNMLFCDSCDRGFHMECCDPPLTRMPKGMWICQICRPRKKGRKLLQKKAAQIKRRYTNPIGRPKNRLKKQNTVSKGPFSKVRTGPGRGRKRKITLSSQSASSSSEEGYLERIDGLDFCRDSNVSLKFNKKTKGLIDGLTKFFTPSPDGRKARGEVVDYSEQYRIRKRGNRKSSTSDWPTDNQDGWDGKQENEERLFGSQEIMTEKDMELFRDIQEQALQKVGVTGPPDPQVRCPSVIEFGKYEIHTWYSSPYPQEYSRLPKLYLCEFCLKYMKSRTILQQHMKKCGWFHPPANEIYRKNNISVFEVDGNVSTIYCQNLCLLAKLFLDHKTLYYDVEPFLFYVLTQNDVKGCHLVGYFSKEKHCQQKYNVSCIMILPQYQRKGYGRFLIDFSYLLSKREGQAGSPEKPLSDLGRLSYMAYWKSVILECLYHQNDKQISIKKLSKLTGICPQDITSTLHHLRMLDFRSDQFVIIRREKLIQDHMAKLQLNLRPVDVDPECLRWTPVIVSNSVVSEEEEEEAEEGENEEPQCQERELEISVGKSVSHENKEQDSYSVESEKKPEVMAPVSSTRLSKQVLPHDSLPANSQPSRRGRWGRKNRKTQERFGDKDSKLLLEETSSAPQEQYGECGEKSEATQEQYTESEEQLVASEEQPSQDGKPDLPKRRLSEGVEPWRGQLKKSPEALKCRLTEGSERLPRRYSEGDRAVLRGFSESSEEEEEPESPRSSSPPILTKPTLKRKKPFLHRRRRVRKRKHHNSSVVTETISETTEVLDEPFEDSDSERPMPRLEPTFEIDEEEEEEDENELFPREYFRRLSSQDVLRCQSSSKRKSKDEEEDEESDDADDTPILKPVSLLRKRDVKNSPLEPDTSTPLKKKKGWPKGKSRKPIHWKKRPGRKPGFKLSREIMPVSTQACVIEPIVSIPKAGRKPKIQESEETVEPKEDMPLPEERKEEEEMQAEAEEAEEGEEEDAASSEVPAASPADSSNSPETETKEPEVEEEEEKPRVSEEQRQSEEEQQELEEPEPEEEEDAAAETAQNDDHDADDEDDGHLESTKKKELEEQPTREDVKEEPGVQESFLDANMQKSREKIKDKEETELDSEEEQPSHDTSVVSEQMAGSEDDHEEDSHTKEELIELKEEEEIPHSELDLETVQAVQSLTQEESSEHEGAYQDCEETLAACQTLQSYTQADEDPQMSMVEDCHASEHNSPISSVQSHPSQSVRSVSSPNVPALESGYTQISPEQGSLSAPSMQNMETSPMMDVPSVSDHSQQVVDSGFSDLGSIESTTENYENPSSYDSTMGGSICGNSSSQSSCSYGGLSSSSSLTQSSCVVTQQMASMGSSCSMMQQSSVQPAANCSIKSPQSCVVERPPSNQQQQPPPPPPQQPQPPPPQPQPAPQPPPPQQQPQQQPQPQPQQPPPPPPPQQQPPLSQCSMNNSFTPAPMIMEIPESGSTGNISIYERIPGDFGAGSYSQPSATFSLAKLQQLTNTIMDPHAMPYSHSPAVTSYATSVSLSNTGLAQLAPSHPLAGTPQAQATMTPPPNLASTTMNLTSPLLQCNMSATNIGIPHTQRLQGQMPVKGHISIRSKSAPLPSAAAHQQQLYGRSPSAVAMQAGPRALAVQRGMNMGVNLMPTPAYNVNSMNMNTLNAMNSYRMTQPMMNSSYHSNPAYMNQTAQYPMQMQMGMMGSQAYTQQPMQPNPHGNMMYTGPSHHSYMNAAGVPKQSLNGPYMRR

Row | Compound | Ki (KAT6A; [3]) [nM] | Ki (KAT6A; [4]) [nM] | Ki (KAT6B; [5]) [nM] | Ki (KAT5; [6]) [nM] | Ki (KAT7; [7]) [nM] | Ki (KAT8; [8]) [nM] | further results
1 | COc1cccc(OC)c1S(=O)(=O)Nc1noc2cc(Cn3cccn3)c(C)cc12 [Example 27] | 1.17 | 0.68 | 2.39 | 220 | 50 | 530 | –
2 | COc1cccc(OC)c1S(=O)(=O)Nc1noc2cc(Cn3cccn3)ccc12 [Example 28] | 4.4 | – | 5.06 | 3050 | 450 | 3260 | –
3 | COc1cc2c(cc1S(=O)(=O)Nc1noc3cc(Cn4cccn4)cc(OC)c13)CCC2 [Example 29] | 0.53 | – | 1.4 | 180 | 60 | 1010 | –
4 | COc1cc(Cn2cccn2)cc2onc(NS(=O)(=O)c3cccc4c(C)ccnc34)c12 [Example 61] | 0.95 | 0.92 | 1.56 | 200 | 40 | 540 | –
5 | COc1cc(Cn2cccn2)cc2onc(NS(=O)(=O)c3c(C)ccc4cccnc34)c12 [Example 73] | 2.31 | 1.7 | 1.36 | 710 | 250 | 3260 | –
6 | COc1cc(Cn2cccn2)cc2onc(NS(=O)(=O)c3cc(C)cc(F)c3)c12 [Example 75] | 9.13 | 6.42 | 13.8 | 5700 | 320 | 12500 | –
7 | COc1cc(Cn2cccn2)cc2onc(NS(=O)(=O)c3cccc(C)c3C#N)c12 [Example 76] | 7.89 | 3.62 | 60.1 | 4380 | 330 | 12500 | –
8 | COc1cc(Cn2cccn2)cc2onc(NS(=O)(=O)c3ccc(C(F)F)cc3)c12 [Example 77] | 8.56 | 11.9 | 29.6 | 8450 | 460 | 12500 | –
9 | COc1cc(Cn2cccn2)cc2onc(NS(=O)(=O)c3cc(C)c(F)c(C)c3)c12 [Example 78] | 5.64 | 5.73 | 26 | 9920 | 540 | 12500 | –
10 | COc1cccc(OC)c1S(=O)(=O)Nc1noc2cc(Cn3cc(CO)cn3)cc(OC)c12 [Example 87, N-(6-{[4-(hydroxymethyl)-1H-pyrazol-1-yl]methyl}-4-methoxy-1,2-benzoxazol-3-yl)-2,6-dimethoxybenzene-1-sulfonamide] | 38.6 | – | – | 10800 | 1840 | 17900 | Ki (KAT6B; read-out: KAT6b Ki at 1 μM AcCoA, 1 μM AcCoA): 133 nM
11 | COc1cccc(OC)c1S(=O)(=O)Nc1noc2cc(Cn3cccn3)c(Br)cc12 [Example 92, N-{5-bromo-6-[(1H-pyrazol-1-yl)methyl]-1,2-benzoxazol-3-yl}-2,6-dimethoxybenzene-1-sulfonamide] | 1.07 | 0.45 | 2.73 | 110 | 30 | 240 | –
12 | COc1cccc(OC)c1S(=O)(=O)Nc1noc2cc(Cn3cccn3)cc(F)c12 [Example 94] | 5.15 | – | 2.5 | 3640 | 630 | 3260 | –
13 | CCc1cc(Cn2cccn2)cc2onc(NS(=O)(=O)c3c(OC)cccc3OC)c12 [Example 95, N-{4-ethyl-6-[(1H-pyrazol-1-yl)methyl]-1,2-benzoxazol-3-yl}-2,6-dimethoxybenzene-1-sulfonamide] | 9.88 | – | 8.35 | 12500 | 4340 | 3260 | –
14 | COc1cccc(OC)c1S(=O)(=O)Nc1noc2cc(Cn3cccn3)cc(C3CC3)c12 [Example 96] | 1.58 | – | 3.67 | 11700 | 900 | 12500 | –
15 | COc1cc(Cn2cccn2)cc2onc(NS(=O)(=O)c3cccc4cc(C)cnc34)c12 [Example 99, N-(6-((1H-pyrazol-1-yl)methyl)-4-methoxybenzo[d]isoxazol-3-yl)-3-methylquinoline-8-sulfonamide] | – | – | – | – | – | – | IC50 [1]: 1550 nM; IC50 [2]: 11400 nM; IC50 (TIP60-KAT5): 980 nM; IC50 (MOZ-KAT6A): 13 nM; IC50 (HBO1-KAT7): 120 nM
16 | COc1cccc(OC)c1S(=O)(=O)Nc1noc2cc(-c3cnn(C)c3)cc(OC)c12 [Example 101, 2,6-dimethoxy-N-(4-methoxy-6-(1-methyl-1H-pyrazol-4-yl)benzo[d]isoxazol-3-yl)benzenesulfonamide] | – | – | – | – | – | – | IC50 (TIP60-KAT5): 11200 nM; IC50 (MOZ-KAT6A): 1260 nM; IC50 (HBO1-KAT7): 1550 nM

The next lines start with results.

Row | Ki (KAT6A; [3]) [nM] | Ki (KAT6A; [4]) [nM] | Ki (KAT6B; [5]) [nM] | Ki (KAT5; [6]) [nM] | Ki (KAT7; [7]) [nM] | Ki (KAT8; [8]) [nM] | Compound | further results
17 | – | – | 1.55 | – | – | – | COc1ccccc1S(=O)(=O)Nc1noc2cc(Cn3cccn3)cc(OC)c12 [Example 45, 2-methoxy-N-{4-methoxy-6-[(1H-pyrazol-1-yl)methyl]-1,2-benzoxazol-3-yl}benzene-1-sulfonamide] | Ki (KAT6A; KAT6a Ki at 1 μM AcCoA, 1 μM AcCoA): 2.28 nM; Ki (KAT6B; KAT6b Ki at 1 μM AcCoA, 1 μM AcCoA): 2.11 nM; Ki (KAT5; 1 μM AcCoA): 320 nM; Ki (KAT7; KAT7 Ki at 1 μM AcCoA): 90 nM; Ki (KAT8; 1 μM AcCoA): 900 nM
18 | 1.14 | 0.49 | 1.32 | 180 | 40 | 560 | COc1cc(C)ccc1S(=O)(=O)Nc1noc2cc(Cn3cccn3)cc(OC)c12 [Example 47] | –
19 | 0.46 | 0.4 | 0.98 | 260 | 20 | 350 | CCOc1cc(C)ccc1S(=O)(=O)Nc1noc2cc(Cn3cccn3)cc(OC)c12 [Example 50] | –
20 | 2.71 | 1.67 | 4.13 | 770 | 90 | 1110 | CCOc1ccccc1S(=O)(=O)Nc1noc2cc(Cn3cccn3)cc(OC)c12 [Example 51] | –
21 | 6.04 | 4.44 | 12.1 | 3060 | 220 | 12500 | COc1cc(Cn2cccn2)cc2onc(NS(=O)(=O)c3ccc(C)cc3F)c12 [Example 65] | –
22 | 2.28 | 3.27 | 1.9 | 410 | 140 | 3260 | COc1cc(Cn2cccn2)cc2onc(NS(=O)(=O)c3cccc(C)c3F)c12 [Example 70] | –
23 | 1.18 | 1.17 | 2.81 | 320 | 30 | 1440 | COc1cc(Cl)ccc1S(=O)(=O)Nc1noc2cc(Cn3cccn3)cc(OC)c12 [Example 71] | –
24 | 2.86 | 2.36 | 6.97 | 2960 | 140 | 12500 | COc1cc(Cn2cccn2)cc2onc(NS(=O)(=O)c3ccc(C)c(C)c3)c12 [Example 72] | –
25 | 5.11 | 4.98 | 4.27 | 1440 | 220 | 3260 | COc1cc(Cn2cccn2)cc2onc(NS(=O)(=O)c3ccc(C)c(F)c3)c12 [Example 79] | –
26 | 7.86 | 5.61 | 12.3 | 4630 | 190 | 12500 | COc1ccc(S(=O)(=O)Nc2noc3cc(Cn4cccn4)cc(OC)c23)cc1C [Example 84] | –
27 | 1.1 | – | 2.74 | 1030 | 120 | 1510 | COc1ccc(C2CC2)cc1S(=O)(=O)Nc1noc2cc(Cn3cccn3)cc(OC)c12 [Example 97, 5-cyclopropyl-2-methoxy-N-{4-methoxy-6-[(1H-pyrazol-1-yl)methyl]-1,2-benzoxazol-3-yl}benzene-1-sulfonamide] | –

Reference: patent publication US11492346B2, “Benzisoxazole sulfonamide derivatives” (Pfizer Inc., priority 2019, dated 2022)
